The text below walks through data of publication PMC5127042, “A polysaccharide utilization locus from Flavobacterium johnsoniae enables conversion of recalcitrant chitin” (Biotechnology for Biofuels, 2016).

Experiment [1] addresses T1, CusDI (Flavobacterium johnsoniae, UniProt A5FB66).
T1 construct: gene Fjoh_4558; residues 33-526, signal peptide removed, N-terminal His tag removed with TEV, E. coli Rosetta(DE3) pLysS
T1 sequence (A5FB66 33-526): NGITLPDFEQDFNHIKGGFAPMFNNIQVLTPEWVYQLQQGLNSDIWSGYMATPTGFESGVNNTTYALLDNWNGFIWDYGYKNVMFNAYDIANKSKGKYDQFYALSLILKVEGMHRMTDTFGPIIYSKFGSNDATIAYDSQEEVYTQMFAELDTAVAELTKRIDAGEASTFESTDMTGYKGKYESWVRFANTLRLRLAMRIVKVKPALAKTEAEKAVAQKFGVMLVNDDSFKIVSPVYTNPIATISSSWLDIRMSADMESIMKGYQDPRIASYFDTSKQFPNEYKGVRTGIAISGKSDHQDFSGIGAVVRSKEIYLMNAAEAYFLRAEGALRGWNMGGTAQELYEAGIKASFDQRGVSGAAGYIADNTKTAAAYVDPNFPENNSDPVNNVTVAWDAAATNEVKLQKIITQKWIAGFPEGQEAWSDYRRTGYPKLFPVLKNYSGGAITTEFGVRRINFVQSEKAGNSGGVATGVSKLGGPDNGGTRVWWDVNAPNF
The experiment can be described thus: isothermal titration calorimetry. The format is binding. The settings on record: 20 mM HEPES, 100 mM NaCl, pH 7.0, 25 °C, one-site model. An excerpt:
isothermal titration calorimetry on CusDI
Background: In ITC the heat of successive injections is recorded.

Experiment [2] deals with T2, CusDII (Flavobacterium johnsoniae, UniProt A5FB55).
T2 construct: gene Fjoh_4561; residues 26-505 (crystal construct 35-505), signal peptide removed, N-terminal His tag removed with TEV, E. coli Rosetta(DE3) pLysS
T2 sequence (A5FB55 26-505): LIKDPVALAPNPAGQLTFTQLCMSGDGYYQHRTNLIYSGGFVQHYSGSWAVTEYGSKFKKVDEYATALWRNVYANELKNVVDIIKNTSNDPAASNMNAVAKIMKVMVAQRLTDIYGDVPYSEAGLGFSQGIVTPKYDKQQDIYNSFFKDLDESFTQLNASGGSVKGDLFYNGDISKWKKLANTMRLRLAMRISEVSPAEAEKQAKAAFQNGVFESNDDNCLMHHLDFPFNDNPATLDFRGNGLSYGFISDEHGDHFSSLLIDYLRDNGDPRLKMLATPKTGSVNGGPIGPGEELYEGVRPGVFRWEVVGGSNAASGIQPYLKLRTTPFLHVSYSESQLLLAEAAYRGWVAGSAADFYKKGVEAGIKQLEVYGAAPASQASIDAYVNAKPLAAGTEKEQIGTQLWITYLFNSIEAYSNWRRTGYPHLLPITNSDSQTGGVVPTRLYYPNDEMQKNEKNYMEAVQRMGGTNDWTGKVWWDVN
Nature of the experiment: isothermal titration calorimetry. The format is binding. The following applies: 20 mM HEPES, 100 mM NaCl, pH 7.0, 25 °C; independent site model. The text has this: isothermal titration calorimetry on CusDII

In general, Kd refers to the constant that tells how readily two partners part at equilibrium. As to `CC(=O)N[C@H]1[C@H](O[C@H]2[C@H](O)[C@@H](NC(C)=O)[C@H](O[C@H]3[C@H](O)[C@@H](NC(C)=O)C(O)O[C@@H]3CO)O[C@@H]2CO)O[C@H](CO)[C@@H](O[C@@H]2O[C@H](CO)[C@@H](O[C@@H]3O[C@H](CO)[C@@H](O[C@@H]4O[C@H](CO)[C@@H](O)[C@H](O)[C@H]4NC(C)=O)[C@H](O)[C@H]3NC(C)=O)[C@H](O)[C@H]2NC(C)=O)[C@@H]1O` (some centres unmarked) [Chitohexaose], the Kd in experiment [1] is 16.1 ± 0.42 µM; in experiment [2], 41.2 ± 1 µM.

With `CC(=O)N[C@H]1[C@H](O[C@H]2[C@H](O)[C@@H](NC(C)=O)C(O)O[C@@H]2CO)O[C@H](CO)[C@@H](O[C@@H]2O[C@H](CO)[C@@H](O)[C@H](O)[C@H]2NC(C)=O)[C@@H]1O` (some centres unmarked) [Chitotriose], in experiment [1], the dissociation constant (Kd) worked out at 8.51 ± 0.51 µM.

For the compound `CC(=O)N[C@H]1[C@H](O[C@H]2[C@H](O)[C@@H](NC(C)=O)[C@H](O[C@H]3[C@H](O)[C@@H](NC(C)=O)C(O)O[C@@H]3CO)O[C@@H]2CO)O[C@H](CO)[C@@H](O[C@@H]2O[C@H](CO)[C@@H](O[C@@H]3O[C@H](CO)[C@@H](O)[C@H](O)[C@H]3NC(C)=O)[C@H](O)[C@H]2NC(C)=O)[C@@H]1O` (some centres unmarked) [Chitopentaose], the figures for the Kd in experiment [1] and in experiment [2] were 12.8 ± 0.21 µM and 236 ± 8 µM, respectively.

On to `CC(=O)N[C@H]1[C@H](O[C@H]2[C@H](O)[C@@H](NC(C)=O)C(O)O[C@@H]2CO)O[C@H](CO)[C@@H](O)[C@@H]1O` (some centres unmarked) [Chitobiose], for which the Kd in experiment [1] stood at 25.6 ± 2.3 µM.

In turn, `CC(=O)N[C@H]1C(O)O[C@H](CO)[C@@H](O)[C@@H]1O` (some centres unmarked) [GlcNAc] came in with a Kd in experiment [1] (n constrained to 1) of 1470 ± 210 µM.

Consider `CC(=O)N[C@H]1[C@H](O[C@H]2[C@H](O)[C@@H](NC(C)=O)C(O)O[C@@H]2CO)O[C@H](CO)[C@@H](O[C@@H]2O[C@H](CO)[C@@H](O[C@@H]3O[C@H](CO)[C@@H](O)[C@H](O)[C@H]3NC(C)=O)[C@H](O)[C@H]2NC(C)=O)[C@@H]1O` (some centres unmarked) [Chitotetraose], for which binding in experiment [1] (single titration) was characterised by a dissociation constant (Kd) of 38.3 ± 4.3 µM.
